Where two headings read alike, the source gives them in different places. No end group written: not given here.
Tests used:
[1] = tested on: human histiocytic lymphoma cell line U937; test: Long-term growth inhibition, minimum toxic concentration (MTC)
Outline: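 U937 cells (5·10^4/ml final, RPMI 1640 + 2 mM glutamine + 10% FCS) exposed to peptides at 0.25–64 µM for 2 h at 37 °C, 5% CO2, then cultured at least four further days. MTC taken as the lowest peptide concentration giving complete growth suppression after four days.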

[2] = tested on: human histiocytic lymphoma cell line U937; test: Cytotoxicity, direct membrane damage (CytoTox 96), LD50; type: cell-based; settings: U937, two hours at 37° C., 0.25-64 μM
Outline: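 Membrane damage in peptide-treated U937 cells measured as LDH release in culture supernatant (30 min substrate, room temperature, dark; absorbance 490 nm). Negative-control signal subtracted and normalized to permeabilization control. LD50 (μM) from sigmoidal fit of relative cytotoxicity (%) versus peptide concentration at 50%.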

E. coli ML-35p = test: Kinetics of permeabilization of the outer bacteria membrane (nitrocefin); type: cell-based, Escherichia coli
Experimental: The ability of the antimicrobial peptides for the respective permeabilization of the outer and inner bacteria membrane was tested by way of example on E. coli ML-35p (made available by Dr. R. E. Lehrer, Center for Health Sciences, Los Angeles, Calif., USA). The peptides were incubated in serial dilution with E. coli ML-35p and the time-dependent release of cell-internal components was measured in a slightly modified protocol according to Ericsson et al. (2002). For this purpose, the bacteria were cultured in Luria-Bertani (LB) medium with 100 μg/ml ampicillin (Fluka, Taufkirchen, Germany) until reaching an optical density of 0.4 at 600 nm wavelength. Then, the cells were washed three times by centrifugation at 4000 g for 1 min and subsequent up-take in 10 mM HEPES buffer pH 7.2. Finally, the cells were diluted to an optical density of 0.3 at 600 nm wavelength. To measure the permeabilization of the outer membrane, nitrocefin (Merck, Darmstadt, Germany) was diluted in HEPES buffer to a concentration of 60 μg/ml. The antimicrobial peptides were diluted in HEPES buffer to an end concentration of 12 μM, 24 μM, 48 μM and 96 μM end concentration. In the next step, 50 μl of nitrocefin were admixed with 50 μl of antimicrobial peptide and 50 μl of bacteria suspension such that an end concentration of 20 μg/ml of nitrocefin, 4 μM to 32 μM of antimicrobial peptide and bacteria with an optical density of 0.1 to 600 nm were present. The samples were mixed and the absorption at 500 nm wavelength was measured directly over a period of at least 90 min at 37° C. with regular shaking in a FLUOstar omega Microplate Reader (BMG Labtech, Ortenberg, Germany). The investigation of the permeabilization of the inner membrane was carried out in the same way except that instead of the nitrocefin accordingly 0-nitrophenyl-beta-D-galactoside (ONPG, Sigma-Aldrich) in an end concentration of 100 μg/ml was used and the absorption change was determined at a wavelength of 420 nm. The control used was samples without antimicrobial peptide, the positive control used for the membrane permeabilization was polymyxin B (Sigma-Aldrich) in an end concentration of 5 μM. For the data evaluation, firstly the measurement values of the corresponding negative controls were deducted from the measurement values of the samples, and the difference was then divided by the corresponding measurement values of the permeabilization control. Then, a graphical evaluation was carried out, the calculated values being plotted against the peptide concentration and being fitted with the help of the Origin Pro 8.1 G Software (OriginLab) according to a sigmoidal model.
As comparison parameter between the peptides, the times were ascertained from this at which 50% of the final signal level was reached. For this purpose, the equation with the percentage membrane permeabilization y, the time x in minutes, the lower plateau A1, the upper plateau A2, the point of inflection Log X0 and the Hill incline p
[formula] was used. The calculation of the parameters A1, A2, Log X0 and p was performed by the program by reference to the compensating curve. Further resolution of equation 5.1 for the case y=50 then produced for x the desired time at which the half-maximum signal level was reached.

[3] = U937, complete suppression of cell growth after four days

Compound	Toxicity MTC (minimum toxic concentration) [1, 3]	Toxicity LD50 [2]	Outer membrane, time to 50% of final signal (E. coli ML-35p; 4 μM peptide)	Outer membrane, time to 50% of final signal (E. coli ML-35p; 8 μM peptide)	Outer membrane, time to 50% of final signal (E. coli ML-35p; 16 μM peptide)	Outer membrane, time to 50% of final signal (E. coli ML-35p; 32 μM peptide)	Toxicity MTC (minimum toxic concentration) [1]
CC[C@H](C)[C@H](NC(=O)CN)C(=O)NCC(=O)N[C@@H](C)C(=O)N[C@H](C(=O)N[C@@H](CC(C)C)C(=O)N[C@@H](CCCCN)C(=O)N[C@H](C(=O)N[C@@H](CC(C)C)C(=O)N[C@H](C(=O)N[C@H](C(=O)NCC(=O)N[C@@H](CC(C)C)C(=O)N1CCC[C@H]1C(=O)N[C@@H](C)C(=O)N[C@@H](CC(C)C)C(=O)N[C@H](C(=O)N[C@@H](CO)C(=O)N[C@@H](Cc1c[nH]c2ccccc12)C(=O)N[C@H](C(=O)N[C@@H](CCCCN)C(=O)N[C@@H](CCCNC(=N)N)C(=O)N[C@@H](CCCCN)C(=O)N[C@@H](CCCNC(=N)N)C(=O)N[C@@H](CCC(N)=O)C(=O)N[C@@H](CCC(N)=O)C(N)=O)[C@@H](C)CC)[C@@H](C)CC)[C@@H](C)O)[C@@H](C)O)C(C)C)C(C)C [Melittin]	2.0 µM	1.4 µM	–	–	–	–	–
ILPWKWPWWPWRR [Indolicidin]	>64 µM	>64 µM	>90 min	>90 min	>90 min	>90 min	–
KILILIKRK-OH [N4]	–	–	54 min	49 min	31 min	17 min	>64 µM
KRKRKILILIKRK-OH [N1]	–	–	21 min	14 min	12 min	11 min	32 µM
MPRRRRSSSRPVRRRRRPRVSRRRRRRGGRRR (Protamine) [protamine from salmon, grade IV, histone-free (Sigma-Aldrich)]	–	>64 µM	<1 min	<1 min	<1 min	<1 min	16 µM

— patent US10556926B2, “Synthetic artificial peptides with antimicrobial effect” (priority 2014, dated 2020)
